# Reference: patent US20210253598A1, “ARYL ANNULATED MACROCYCLIC INDOLE DERIVATIVES” (priority 2017, published 2021)
# “And” between values parts separate entries of the source, which are not always exact repeats. Identical values can stand only once. Counter-ions that a name gives are not always drawn. Like-named read-outs stand apart in the source and are kept apart here.
# Assays:
# SUDHL5 [1] = assay: Induction of caspase-3/7 activity in SUDHL5 cells (Assay 4); assay type: cell-based; conditions: SUDHL5, 3 hours treatment, Caspase-Glo 3/7, median, read-out: Caspase SUDHL5 [M] (median)
# Experimental: (§1) Induction of Caspase-3/7 Activity Upon Treatment of Cells with Selected Compounds
# (§2) The BH3-domain of MCL-1 sequesters pro-apoptotic proteins, thereby inhibiting apoptosis. In contrast, MCL-1 inhibitors are expected to antagonize this effect leading to an increase in apoptosis, which can be determined by measuring the activity of caspase-3/7.
# (§3) The activity of caspase-3/7 was determined in DLBCL (Diffuse large B-cell lymphoma) cell lines (SUDHL5 and SUDHL10) upon treatment with different compounds, using the Caspase-Glo® 3/7 reagent from Promega (G8092).
# (§4) As a control, medium without cells was also added to the plate. Cells were incubated in a humidified incubator at 37° C. overnight.
# (§5) Rim wells were excluded. The cells were incubated for 3 hours in a humidified incubator at 37° C. After this incubation, 30 μl of Caspase-Glo® 3/7 reagent (Promega G8092) was added to each well using the Multidrop Combi Reagent Dispenser, followed by 1 hour incubation at 37° C. Finally, luminescence was read at 0.1 ms, with a gain of 3000 using the PHERAstar FS microplate reader (BMG Labtech).
# (§6) For the evaluation of the results, the background measured with “medium-only” was subtracted from all other values. Then, the values were normalized to DMSO-only treated cells (every value was divided by the mean of the DMSO control).
# MCL-1 = MCL-1 (Homo sapiens, UniProt Q07820, K194A/K197A/R201A); assay: Protein-protein interaction assay MCL-1/Noxa BH3 peptide, TR-FRET (MCL-1 assay, Assay 1); assay type: binding; conditions: MCL-1 Assay [M] (median), MBP-MCL-1 / Noxa BH3 peptide
# MCL-1, sequence (Q07820 173-321 K194A/K197A/R201A, looked up): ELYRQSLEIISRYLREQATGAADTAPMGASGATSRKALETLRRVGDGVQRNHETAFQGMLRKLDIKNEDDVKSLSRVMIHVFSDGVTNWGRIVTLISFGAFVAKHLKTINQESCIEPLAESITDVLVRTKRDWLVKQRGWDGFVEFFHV
# Experimental: The dose-dependent inhibition by the compounds described in this invention of the interaction between MCL-1 and the BH3 domain of Noxa (both human) was determined using a steady state binding competition assay with time-resolved fluorescence energy transfer (TR-FRET) readout. For that purpose MCL-1 (amino acids 173-321, N-terminal fused to Maltose Binding Protein (MBP), SEQ ID 1) and a synthetic Noxa BH3-derived peptide of sequence Biotin-PEG2-PEG2-PAELEVE-Nva-[…]-amide (SEQ ID 2) served as protein receptor and tracer ligand respectively. The MBP-MCL-1 was purchased from Beryllium (Bedford, Mass., USA). The expression and purification of this protein construct has been described elsewhere (DOI:10.1371/journal.pone.0125010). The Noxa BH3-derived peptide can be obtained from e.g. Biosyntan (Berlin, Germany).
# For that, 100-fold concentrated DMSO solutions were prepared by serial dilutions (1:3.4) of a 2 mM stock solution in a clear, 384-well microtiter plate (Greiner Bio-One, Frickenhausen, Germany). From there, 50 nl were transferred in a dark test plate (Greiner Bio-One, Frickenhausen, Germany). The assay was initiated by addition of 2 μl of a 2,5-fold concentrated MBP-MCL-1 solution (usually for a 1 nM end concentration in 5 μl reaction volume) in aqueous assay buffer [50 mM Tris/HCl pH 7, 100 mM sodium chloride (NaCl), 50 mM potassium fluoride (KF), 0.005% Tween-20, 2 mM DTT, 0.1% bovine gamma globulin (BGG)] to the compounds in the assay plate. This was followed by a 10-minute incubation step at 22° C. for pre-equilibration of the putative complex between MBP-MCL-1 and the compounds.
# The mixture was incubated in the dark for one hour at 22° C. and then overnight at 4° C. The formation of MCL-1/Noxa complexes was determined by measuring the resonance energy transfer of the anti-MBP-Eu-cryptate antibody to the streptavidin-XL665 present in the reaction.
# The resulting data (ratio) were normalized, taking 0% inhibition as the mean value of control measurements (usually 32 data points) where all reagents were included. In this case 50 nl DMSO were used instead of compounds. […] IC50 values were determined by regression analysis based on a 4 parameter equation (minimum, maximum, IC50, Hill; Y=Max+(Min−Max)/(1+(X/IC50)^Hill) using the Screener Software (Genedata).
# SUDHL10 [2] = assay: Induction of cytotoxicity in SUDHL10 cells, CellTiter-Glo (Assay 6); assay type: cell-based; conditions: SUDHL10, 5 hours incubation, median, read-out: Cytotox SUDHL10 [M] (median)
# Experimental: (§7) Induction of Cytotoxicity Upon Treatment of Cells with Selected Compounds
# (§8) In principle, compounds that induce apoptosis will concomitantly induce cell cytotoxicity. Therefore, cytotoxicity assays were run in parallel in SUDHL5 and SUDHL10 cells.
# (§9) As a control, medium without cells was also added to the plate. Cells were incubated in a humidified incubator at 37° C. overnight. […] Rim wells were excluded. The cells were incubated for 5 hours in a humidified incubator at 37° C. After this incubation, 30 μl of CellTiter-Glo® Luminescent Cell Viability reagent (Promega, G7573) was added to each well using the Multidrop Combi Reagent Dispenser, followed by 15 minutes incubation on a shaker at room temperature. Finally, luminescence was read at 0.1 ms, with a gain of 3000 using the PHERAstar FS microplate reader (BMG Labtech).
# SUDHL10 [3] = assay: Induction of caspase-3/7 activity in SUDHL10 cells (Assay 4); assay type: cell-based; conditions: SUDHL10, 3 hours treatment, Caspase-Glo 3/7, median, read-out: Caspase SUDHL10 [M] (median)
# Experimental: as §1, §2, §3, §4, §5, §6
# SUDHL5 [4] = assay: Anti-proliferative effect in SUDHL5 cells, CellTiter-Glo (Assay 7); assay type: cell-based; conditions: SUDHL5, 72 hours incubation, CellTiter-Glo, median, read-out: Antiproli SUDHL5 [M] (median)
# Experimental: (§10) Assessment of the Anti-Proliferative Effect of Compounds in Different Cell Lines
# (§11) The impact of compounds on the proliferation of different cell lines was assessed using the CellTiter-Glo® Luminescent Cell Viability reagent from Promega (G7573).
# (§12) In parallel, cells were plated in a reference (day 0) plate for time zero determination. Cells were incubated in a humidified incubator at 37° C. overnight.
# (§13) Rim wells were excluded. The cells were incubated for 72 hours in a humidified incubator at 37° C. The day 0 plate was measured by adding 30 μL/well of CTG solution (CellTiter-Glo® Luminescent Cell Viability reagent, Promega G7573) to time zero wells in the reference plate followed by a 10 minutes incubation and luminescence reading at 0.1 ms. using the PHERAstar FS microplate reader (BMG Labtech).
# (§14) After 72 hours incubation, the treated plates were measured in the same way as the day 0 plate mentioned above. The Bella DRC Master Sheet was used to calculate IC50s, with CI=day 0 values and C0=DMSO control values.
# A2780 = assay: Anti-proliferative effect in A2780 cells, CellTiter-Glo (Assay 7); assay type: cell-based; conditions: A2780, 72 hours incubation, CellTiter-Glo, several values per example, read-out: Antiproli A2780
# Experimental: as §10, §11, §12, §13, §14
# SUDHL5 [5] = assay: Induction of cytotoxicity in SUDHL5 cells, CellTiter-Glo (Assay 6); assay type: cell-based; conditions: SUDHL5, 5 hours incubation, median, read-out: Cytotox SUDHL5 [M] (median)
# Experimental: as §7, §8, §9
IC50 (A2780; Acetate Salt) [µM],"IC50 (A2780; Homo sapiens, A2780, 72 h) [µM]",SMILES,"EC50 (SUDHL5 [1]; Homo sapiens, SU-DHL-5, 3 h) [M]",IC50 (MCL-1) [M],"IC50 (SUDHL10 [2]; Homo sapiens, SU-DHL10, 5 h) [M]","EC50 (SUDHL10 [3]; Homo sapiens, SU-DHL10, 3 h) [M]","IC50 (SUDHL5 [4]; Homo sapiens, SU-DHL-5, 72 h) [M]","IC50 (SUDHL5 [5]; Homo sapiens, SU-DHL-5, 5 h) [M]",EC50 (SUDHL5 [1]) [M],IC50 (SUDHL10 [2]) [M],EC50 (SUDHL10 [3]) [M],IC50 (SUDHL5 [4]) [M],IC50 (SUDHL5 [5]) [M],IC50 (A2780)
5.77,4.91,"Cc1c2c(nn1C)CN(S(=O)(=O)c1ccc(N3CCOCC3)nc1)Cc1ccccc1Cn1c(C(=O)O)c(CCCOc3cccc4ccccc34)c3cccc-2c31 (racemic) [Example 17, (rac)-4,5-Dimethyl-8-{[6-(morpholin-4-yl)pyridin-3-yl]sulfonyl}-17-[3-(naphthalen-1-yloxy)propyl]-7,8,9,14-tetrahydro-5H-indolo[1,7-bc]pyrazolo[4,3-e][2,8]benzodiazacycloundecine-16-carboxylic Acid Acetate Salt]",3e-06,3.4e-08,1.4e-05,8.5e-06,3.9e-06,3.1e-06,,,,,,
,,"Cc1c2c(nn1C)COCc1ccccc1Cn1c(C(=O)O)c(CCCOc3cccc4ccccc34)c3cccc-2c31 (racemic) [Example 1, (rac)-4,5-Dimethyl-17-[3-(naphthalen-1-yloxy)propyl]-5,7,9,14-tetrahydroindolo[7,1-fg]pyrazolo[3,4-d][2,8]benzoxazacycloundecine-16-carboxylic Acid]",1e-05,1.4e-08,> 1.6e-05,> 3.3e-05,9e-06,1.1e-05,,,,,,
,,"Cc1c2c(nn1C)COCc1ncccc1Cn1c(C(=O)O)c(CCCOc3cccc4ccccc34)c3cccc-2c31 (single isomer, unassigned; enantiomer 2) [Example 9, 4,5-Dimethyl-17-[3-(naphthalen-1-yloxy)propyl]-5,7,9,14-tetrahydropyrazolo[4′,3′:9,10]-pyrido[2′,3′:3,4][1,6]oxazacycloundecino[8,7,6-hi]indole-16-carboxylic acid-N-ethylethanamine Salt (Enantiomer 2)]",,3.2e-08,,,,,> 3.3e-05,> 3.3e-05,> 3.3e-05,2e-05,> 3.3e-05,
,,Cc1c2c(nn1C)COCc1cccnc1Cn1c(C(=O)O)c(CCCOc3cccc4ccccc34)c3cccc-2c31 [Example 04],,,,,,,,,,,,31.1 µM and > 33 µM
,,"Cc1c2c(nn1C)COCc1ncccc1Cn1c(C(=O)O)c(CCCOc3cccc4ccccc34)c3cccc-2c31 (racemic) [Example 7, (rac)-4,5-Dimethyl-17-[3-(naphthalen-1-yloxy)propyl]-5,7,9,14-tetrahydropyrazolo[4′,3′:9,10]-pyrido[2′,3′:3,4][1,6]oxazacycloundecino[8,7,6-hi]indole-16-carboxylic Acid]",3e-06,,1.5e-05,1.6e-05,4.6e-06,3.6e-06,,,,,,
,,"Cc1c2c(nn1C)COCc1cccnc1Cn1c(C(=O)O)c(CCCOc3cccc4ccccc34)c3cccc-2c31 (racemic) [Example 4, (rac)-4,5-Dimethyl-17-[3-(naphthalen-1-yloxy)propyl]-5,7,9,14-tetrahydropyrazolo-[4′,3′:9,10]pyrido[3′,2′:3,4][1,6]oxazacycloundecino[8,7,6-hi]indole-16-carboxylic Acid]",1.5e-05,5.3e-09,> 2.3e-05,> 3.2e-05,1.4e-05,1.2e-05,,,,,,
,,"Cc1c2c(nn1C)COCc1cccnc1Cn1c(C(=O)O)c(CCCOc3cccc4ccccc34)c3cccc-2c31 (single isomer, unassigned; enantiomer 1) [Example 5, 4,5-Dimethyl-17-[3-(naphthalen-1-yloxy)propyl]-5,7,9,14-tetrahydropyrazolo[4′,3′:9,10]-pyrido[3′,2′:3,4][1,6]oxazacycloundecino[8,7,6-hi]indole-16-carboxylic Acid (Enantiomer 1)]",,2.9e-09,,,,,5.4e-06,1.3e-05,1.4e-05,5.2e-06,4.6e-06,
,,"Cc1c2c(nn1C)COCc1cccnc1Cn1c(C(=O)O)c(CCCOc3cccc4ccccc34)c3cccc-2c31 (single isomer, unassigned; enantiomer 2) [Example 6, 4,5-Dimethyl-17-[3-(naphthalen-1-yloxy)propyl]-5,7,9,14-tetrahydropyrazolo[4′,3′:9,10]-pyrido[3′,2′:3,4][1,6]oxazacycloundecino[8,7,6-hi]indole-16-carboxylic Acid (Enantiomer 2)]",,1.1e-08,,,,,> 2.2e-05,> 3.3e-05,> 3.3e-05,1.2e-05,> 1.9e-05,
,,"Cc1c2c(nn1C)CN(C(=O)CC1CCOCC1)Cc1ccccc1Cn1c(C(=O)O)c(CCCOc3cccc4ccccc34)c3cccc-2c31 (single isomer, unassigned; enantiomer 1) [Example 22, (−)-4,5-Dimethyl-17-[3-(naphthalen-1-yloxy)propyl]-8-(tetrahydro-2H-pyran-4-ylacetyl)-7,8,9,14-tetrahydro-5H-indolo[1,7-bc]pyrazolo[4,3-e][2,8]benzodiazacycloundecine-16-carboxylic Acid (Enantiomer 1)]",,6.5e-07,,,,,1.4e-05,> 3.3e-05,> 3.3e-05,,1.7e-05,
